Data as given in ChEMBL document CHEMBL4219068 (Bioorg Med Chem, 2018).
Values belong to the compound of their own block, whether it stands above or below them. The source made the active and inactive calls. The rule behind the calls is not given here.

Tests used:
[1] = Drug level in pH 7.4 PBS at 50 uM measured after 0 hrs by HPLC analysis; type: physicochemical; details: buffer, pH 7.4, 0 h
[2] = target: Amyloid-beta precursor protein (Homo sapiens) (UniProt P05067); assay: Binding affinity to amyloid beta (1 to 42) (unknown origin) assessed as retention time for amyloid beta (1 to 42)-compound adduct formation at 250 uM after 1 hr by LC/Q Tof-MS analysis
[3] = Drug level in pH 7.4 PBS at 50 uM measured after 48 hrs by HPLC analysis; type: physicochemical; details: buffer, pH 7.4, 48 h
[4] = target: Amyloid-beta precursor protein (Homo sapiens) (UniProt P05067); assay: Inhibition of amyloid beta (1 to 42) (unknown origin) aggregation at 5 uM by Thioflavin-T fluorescence assay; details: TDE = time-dependent effect
[5] = Drug level in pH 7.4 PBS at 50 uM measured after 4 hrs by HPLC analysis; type: physicochemical; details: buffer, pH 7.4, 4 h
[6] = target: Amyloid-beta precursor protein (Homo sapiens) (UniProt P05067); assay: Inhibition of HFIP pretreated amyloid beta (1 to 42) (unknown origin) aggregation assessed as time for nucleation phase of aggregation at 5 uM by Thioflavin-T fluorescence assay (reference value: 4 to 5 hrs)
[7] = Drug level in pH 7.4 PBS treated with apomorphine at 50 uM up to 8 hrs by UV-Visible spectroscopic analysis; type: physicochemical; details: buffer, pH 7.4, 8 h
[8] = Drug level in pH 7.4 PBS at 50 uM measured after 1 hr by HPLC analysis; type: physicochemical; details: buffer, pH 7.4, 1 h
[9] = Drug level in pH 7.4 PBS treated with apomorphine at 8 uM measured immediately by HPLC analysis; type: physicochemical; details: buffer, pH 7.4, 8 µM
[10] = Drug level in pH 7.4 PBS at 50 uM measured after 24 hrs by HPLC analysis; type: physicochemical; details: buffer, pH 7.4, 24 h
[11] = target: Amyloid-beta precursor protein (Homo sapiens) (UniProt P05067); assay: Inhibition of amyloid beta (1 to 42) (unknown origin) aggregation at 5 uM after 48 hrs by Thioflavin-T fluorescence assay relative to control
[12] = Drug level in pH 7.4 PBS at 50 uM measured after 2 hrs by HPLC analysis; type: physicochemical; details: buffer, pH 7.4, 2 h
[13] = target: Amyloid-beta precursor protein (Homo sapiens) (UniProt P05067); assay: Inhibition of amyloid beta (1 to 42) (unknown origin)-mediated toxicity in human SH-SY5Y cells at 500 uM preincubated with amyloid beta (1 to 42) for 30 mins followed by addition to cells measured after 24 hrs by MTT assay; type: cell-based
[14] = Drug level in pH 7.4 PBS treated with apomorphine at 50 uM measured after 8 hrs by HPLC analysis; type: physicochemical; details: buffer, pH 7.4, 8 h
[15] = Drug level in pH 7.4 PBS at 50 uM measured after 8 hrs by HPLC analysis; type: physicochemical; details: buffer, pH 7.4, 8 h
[16] = Drug level in pH 7.4 PBS treated with apomorphine at 8 to 50 uM measured up to 24 hrs by HPLC analysis; type: physicochemical; details: buffer, pH 7.4, 24 h
[17] = Drug metabolism in pH 7.4 PBS assessed as auto-oxidization by measuring 6-methyl-5,6-dihydro-4H-dibenzo[de,g]quinoline-10,11-dione level at 50 uM measured after 8 hrs by HPLC analysis; type: physicochemical; details: buffer, pH 7.4, 8 h
[18] = target: Amyloid-beta precursor protein (Homo sapiens) (UniProt P05067); assay: Inhibition of amyloid beta (1 to 42) (unknown origin) aggregation at 5 uM in presence of reductant TCEP by Thioflavin-T fluorescence assay
[19] = target: Amyloid-beta precursor protein (Homo sapiens) (UniProt P05067); assay: Inhibition of amyloid beta (1 to 42) (unknown origin) aggregation at 0.25 to 50 uM after 48 hrs by uranyl acetate staining based transmission electron microscopic method
[20] = Drug metabolism in pH 7.4 PBS assessed as auto-oxidization by measuring 6-methyl-5,6-dihydro-4H-dibenzo[de,g]quinoline-10,11-dione level at 50 uM measured after 1 hr by HPLC analysis; type: physicochemical; details: buffer, pH 7.4, 1 h
[21] = Drug metabolism in pH 7.4 PBS assessed as auto-oxidization by measuring 6-methyl-5,6-dihydro-4H-dibenzo[de,g]quinoline-10,11-dione level at 50 uM measured after 4 hrs by HPLC analysis; type: physicochemical; details: buffer, pH 7.4, 4 h
[22] = Drug metabolism in pH 7.4 PBS assessed as auto-oxidization by measuring 6-methyl-5,6-dihydro-4H-dibenzo[de,g]quinoline-10,11-dione level at 50 uM measured after 0 hrs by HPLC analysis; type: physicochemical; details: buffer, pH 7.4, 0 h
[23] = Drug metabolism in pH 7.4 PBS assessed as auto-oxidization by measuring 6-methyl-5,6-dihydro-4H-dibenzo[de,g]quinoline-10,11-dione level at 50 uM measured after 2 hrs by HPLC analysis; type: physicochemical; details: buffer, pH 7.4, 2 h
[24] = target: Amyloid-beta precursor protein (Homo sapiens) (UniProt P05067); assay: Binding affinity to amyloid beta (9 to 35) E22P M35ox mutant (unknown origin) oxidized at M35 residue assessed as E22P M35ox(Lys16/Lys28)-compound adduct formation at 250 uM after 1 hr by LC/Q Tof-MS analysis
[25] = target: Amyloid-beta precursor protein (Homo sapiens) (UniProt P05067); assay: Binding affinity to amyloid beta (1 to 42) (unknown origin) assessed as retention time for amyloid beta (1 to 42) (Lys16)-compound adduct at 250 uM after 1 hr by LC/Q Tof-MS analysis
[26] = target: Amyloid-beta precursor protein (Homo sapiens) (UniProt P05067); assay: Binding affinity to amyloid beta (1 to 42) (unknown origin) assessed as retention time for amyloid beta (1 to 42) - 6-methyl-5,6-dihydro-4H-dibenzo[de,g]quinoline-10,11-dione adduct at 250 uM after 1 hr by LC/Q Tof-MS analysis
[27] = Drug metabolism in pH 7.4 PBS assessed as auto-oxidization by measuring 6-methyl-5,6-dihydro-4H-dibenzo[de,g]quinoline-10,11-dione level at 50 uM measured after 24 hrs by HPLC analysis; type: physicochemical; details: buffer, pH 7.4, 24 h
[28] = target: Amyloid-beta precursor protein (Homo sapiens) (UniProt P05067); assay: Inhibition of amyloid beta (1 to 42) (unknown origin) aggregation by Thioflavin-T fluorescence assay
[29] = target: Amyloid-beta precursor protein (Homo sapiens) (UniProt P05067); assay: Binding affinity to amyloid beta (1 to 42) (unknown origin) assessed as retention time for amyloid beta (1 to 42) (Lys28)-compound adduct at 250 uM after 1 hr by LC/Q Tof-MS analysis

Sequence of Amyloid-beta precursor protein (Homo sapiens) (P05067 whole entry): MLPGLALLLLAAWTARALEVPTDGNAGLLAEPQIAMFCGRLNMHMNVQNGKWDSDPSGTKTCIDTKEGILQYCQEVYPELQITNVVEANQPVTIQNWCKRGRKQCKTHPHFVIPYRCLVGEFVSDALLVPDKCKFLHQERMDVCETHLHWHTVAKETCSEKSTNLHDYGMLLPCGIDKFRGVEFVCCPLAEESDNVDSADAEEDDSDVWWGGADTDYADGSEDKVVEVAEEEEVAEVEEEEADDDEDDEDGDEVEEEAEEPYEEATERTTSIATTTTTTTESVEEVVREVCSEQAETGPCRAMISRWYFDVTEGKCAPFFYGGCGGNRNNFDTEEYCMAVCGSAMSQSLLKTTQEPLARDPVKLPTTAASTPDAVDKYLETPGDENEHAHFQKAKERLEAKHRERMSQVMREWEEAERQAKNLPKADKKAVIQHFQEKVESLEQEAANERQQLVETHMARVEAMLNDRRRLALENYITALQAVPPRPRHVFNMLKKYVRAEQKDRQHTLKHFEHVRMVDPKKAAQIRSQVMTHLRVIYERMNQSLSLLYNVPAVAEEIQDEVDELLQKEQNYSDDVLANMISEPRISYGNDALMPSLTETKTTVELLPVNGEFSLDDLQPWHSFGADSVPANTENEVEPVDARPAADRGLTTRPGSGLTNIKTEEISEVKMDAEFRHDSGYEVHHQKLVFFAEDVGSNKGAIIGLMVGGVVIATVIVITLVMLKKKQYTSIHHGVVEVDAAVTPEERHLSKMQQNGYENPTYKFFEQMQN

Drug uptake [1]: 31 µM | Activity [2]: inactive | Drug uptake [3]: 15 µM | inhibition [4]: Tde | Drug uptake [5]: 24 µM | TIME [6]: 6 to 7 h | Drug metabolism [7]: Metabolite_Detected | Drug uptake [8]: 24 µM | Drug metabolism [9]: Metabolite_Detected | Drug uptake [10]: 19 µM | inhibition [11]: > 50% | Drug uptake [12]: 22 µM | Drug metabolism [14]: Metabolite_Detected | Drug uptake [15]: 24 µM
Structure (SMILES): CN1CCc2cccc3c4c(cc1c23)C=CC(=O)C4=O
inhibition [13]: inactive

Drug metabolism [16]: Metabolite_Detected
Structure (SMILES): CNCCc1cccc2c3c(ccc12)C=CC(=O)C3=O

Drug metabolism [16]: Metabolite_Detected
Structure (SMILES): CN1CCc2cccc3c2C1=CC(=O)C3=O

Drug metabolism [17]: 50 µM | inhibition [4]: Tde | inhibition [18]: inactive | inhibition [19]: Active | TIME [6]: 6 to 7 h | Drug metabolism [20]: 23 µM | Drug metabolism [21]: 47 µM | Drug metabolism [22]: 8 µM | Drug metabolism [23]: 32 µM | Activity [24]: Active | Retention time [25]: 6.4 min | Activity [26]: Active | Drug metabolism [27]: 25 µM | inhibition [28]: Dose-dependent effect | Retention time [29]: 6.9 min | inhibition [11]: > 50%
Structure (SMILES): CN1CCc2cccc3c2[C@H]1Cc1ccc(O)c(O)c1-3 [APOMORPHINE]
inhibition [13]: inactive
